IC50 data for two compounds are collected here from BindingDB's records for doi:10.1016/S0960-894X(01)80331-0 (1994).

A short description of assay [1]: In Vitro Binding affinity againist 5-HT1A receptor by displacing [3H]8-OH-DPAT from pig cortex.
The nature of assay [2]: In Vitro Binding affinity againist 5-hydroxytryptamine 1D receptor by displacing [125I]GTI from pig caudate.
Assay [3] can be described thus: In Vitro Binding affinity againist 5-hydroxytryptamine 2C receptor by displacing [3H]mesulergine from pig cortex.

On to `NCCc1coc2ccc(C(N)=O)cc12`, for which the IC50 in assay [1] is 4.6 nM; in assay [2], 43 nM; in assay [3], 661 nM.
On to `NCCC1COc2ccc(C(N)=O)cc21` (stereo unspecified), for which the figures for the IC50 in assay [1], in assay [2] and in assay [3] were 72 nM, 776 nM and 8130 nM, respectively.
